Tests used:
[1] = Stability study (shelf-life) of ASP and ASP-CD complexes in physiological saline; type: physicochemical; conditions: for Shelf-life (t90%): physiological saline
Protocol: The determination of ASP concentration was performed with HPLC using an Agilent 1260 (Agilent Technologies, Santa Clara, USA). As stationary phase a Zorbax Eclipse© C18 column 100×4.6 mm, 5 μm (Phenomenex, Torrance, CA, USA) was applied. Isocratic elution with purified water and methanol 10:90 (v/v) was applied for 6 min at a flow rate of 1.0 mL/min at 25° C. 10 μL of the samples were injected to determine the ASP concentration. The chromatograms were detected at 255 nm using UV-VIS diode array detector. Data were evaluated using ChemStation B.04.03. Software (Agilent Technologies, Santa Clara, USA). […] Chemical stability of ASP and ASP-CD complexes was investigated in physiological saline at room condition (25±0.5° C.) and cold place condition (4±0.5° C.) for 5 days. Actual drug content was quantified using HPLC in predetermined time intervals to predict shelf-life of formulations.

[2] = Ex vivo corneal drug permeation with Raman mapping; type: in vitro ADME, porcine; conditions: after 15 min treatment, compared to 5 min treatment
Protocol: The ex vivo penetration of ASP was examined with HPLC and Raman microscopy. Freshly donated porcine eyes obtained from the slaughterhouse was placed on a sterile cotton wool bed moistened with physiological saline solution and kept in refrigerator box during the transportation. The porcine eye was placed into a Teflon cell, where the cornea was uncovered and surrounded by a Teflon ring to prevent the flow of eye drops. The cornea was instilled with 1000 μL of physiological saline solution and 50 μL of ASP-CD formulation was added to the covering saline solution, which can imitate physiological dilution caused by tear fluid and incubated at 35° C. […] ASP content in the residual solution, aqueous humour and cornea was determined with HPLC. The corneal retention of AS was calculated according to Eq. 2., whereas apparent permeability by using the following equation: […]
Raman mapping was carried out to examine the distribution of selected ASP-CD formulation and initial ASP on porcine cornea. […] For localization of permeated formulation, the Raman spectra of ASP was set as profile, whose frequency of occurrence was determined by measuring the relative intensity of ASP in the Raman maps with ImageJ 1.4 software (National Institutes of Health, Bethesda, MD, USA).

[3] = tested on: conjunctival and corneal surface of rabbit eyes; conditions: in vivo
[4] = tested on: conjunctival and corneal surface of rabbit eyes; test: Ocular administration of cyclodextrins to rabbit eyes (irritation/tolerability); conditions: concentrations of 5 and 12.5%

CCCCCCCCCCCCCCCC(=O)OC[C@H](O)[C@H]1OC(=O)C(O)=C1O [ASP, L-Ascorbic acid 6-palmitate]
Shelf-life (t90%) ([1]; stored at 4° C.): 4.58 h | Shelf-life (t90%) ([1]; stored at 25° C.): 8.37 h | Relative intensity of ASP in Raman maps [2]: increased

CC(O)COC[C@H]1O[C@@H]2O[C@H]3[C@H](O)[C@@H](O)[C@@H](O[C@H]4[C@H](O)[C@@H](O)[C@@H](O[C@H]5[C@H](O)[C@@H](O)[C@@H](O[C@H]6[C@H](O)[C@@H](O)[C@@H](O[C@H]7[C@H](O)[C@@H](O)[C@@H](O[C@H]8[C@H](O)[C@@H](O)[C@@H](O[C@H]1[C@H](O)[C@H]2O)O[C@@H]8COCC(C)O)O[C@@H]7COCC(C)O)O[C@@H]6COCC(C)O)O[C@@H]5COCC(C)O)O[C@@H]4COCC(C)O)O[C@@H]3COCC(C)O (stereo partly drawn) [HPBCD, (2-Hydroxypropyl)-beta-cyclodextrin]
Ocular tolerability [3]: well tolerated

benzalkonium chloride [BC]
Effect of BC on the shelf-life ([1]; 0.004 and 0.008% BC): no significant effect

randomly substituted methyl-beta-cyclodextrin [RAMEB]
Ocular irritation [4]: irritating
